Experimental findings from paper PMC2267855, “Site-directed mutagenesis of Arginine282 suggests how protons and peptides are co-transported by rabbit PepT1” (The International Journal of Biochemistry & Cell Biology, 2008) are described below.

The structures appear in SMILES notation. Numbering of substitutions follows the chain as printed. Where a SMILES comes first, the peptide text is derived from it.

In general, Ki refers to the equilibrium dissociation constant of an inhibitor or competing ligand from its target.

The target of assay [1] is T1, R282Q-PepT1 (Oryctolagus cuniculus, UniProt P36836, R282Q).
T1 construct: expressed in transfected cells; host or cells: Xenopus laevis oocytes injected with cRNA
T1 sequence (P36836 1-707 R282Q): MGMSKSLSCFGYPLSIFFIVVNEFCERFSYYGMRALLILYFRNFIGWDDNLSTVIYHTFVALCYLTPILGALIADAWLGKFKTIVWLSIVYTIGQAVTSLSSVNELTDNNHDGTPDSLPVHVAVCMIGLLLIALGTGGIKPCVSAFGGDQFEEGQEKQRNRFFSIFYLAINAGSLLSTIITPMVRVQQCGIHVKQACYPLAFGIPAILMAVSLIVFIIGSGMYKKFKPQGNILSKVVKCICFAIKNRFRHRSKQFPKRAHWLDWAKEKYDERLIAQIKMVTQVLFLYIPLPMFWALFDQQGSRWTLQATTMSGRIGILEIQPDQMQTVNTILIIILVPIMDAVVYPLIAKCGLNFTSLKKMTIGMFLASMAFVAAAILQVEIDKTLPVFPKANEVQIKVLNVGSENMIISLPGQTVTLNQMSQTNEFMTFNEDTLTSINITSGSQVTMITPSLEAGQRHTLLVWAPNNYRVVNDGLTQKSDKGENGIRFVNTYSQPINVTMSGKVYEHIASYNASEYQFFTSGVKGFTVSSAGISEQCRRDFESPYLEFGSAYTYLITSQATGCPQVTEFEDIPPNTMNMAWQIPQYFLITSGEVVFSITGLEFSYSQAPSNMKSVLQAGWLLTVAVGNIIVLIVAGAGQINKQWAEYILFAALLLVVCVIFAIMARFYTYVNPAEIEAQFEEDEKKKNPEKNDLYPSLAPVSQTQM
Description: Inhibition of [3H]-D-Phe-L-Gln uptake into Xenopus oocytes expressing R282Q-PepT1 (competition, Ki). It is filed as cell-based, rabbit. The conditions noted are these: pHout 5.5, 0.4 μM [3H]-D-Phe-L-Gln. Here is the method: (§1) Zero-trans uptake of [^3H]-D-Phe-L-Gln (17.4 Ci/mmole, custom synthesised, Cambridge Research Biochemicals, Stockton-on-Tees, UK) was performed as previously described ([Meredith, 2004]). Briefly, 5 oocytes were incubated in 100 μl of uptake medium (95 mM NaCl, 2 mM KCl, 1 mM CaCl2, 0.42 mM MgCl2, 10 mM Tris/Hepes pH 7.4 or Tris/Mes pH 5.5) with tracer (0.4 μM) [^3H]-D-Phe-L-Gln. After incubation, the oocytes were washed sequentially five times in 1 ml of ice-cold 120 mM NaCl solution, lysed individually with 100 μl 2% (w/v) SDS and liquid scintillation counted. As a control non-injected oocytes were also incubated in uptake medium with [^3H]-D-Phe-L-Gln as above.
(§2) The affinity of wild-type and mutant PepT1 were assessed by competition studies with 0.4 μM [^3H]-D-Phe-L-Gln and Gly-L-Gln present in the uptake medium in concentrations from 0 to 2 mM using the protocol above, and the Ki calculated using the method of [Deves and Boyd (1989)].

The target in assay [2] is T2, wild-type rabbit PepT1 (Oryctolagus cuniculus, UniProt P36836).
T2 construct: expressed in transfected cells; host or cells: Xenopus laevis oocytes injected with cRNA
T2 sequence (P36836 1-707): T1 sequence (P36836 1-707 R282Q) with Q282R
The assay can be described thus: Inhibition of [3H]-D-Phe-L-Gln uptake into Xenopus oocytes expressing wild-type PepT1 (competition, Ki). As to conditions: wild-type PepT1, pHout 5.5, 0.4 μM [3H]-D-Phe-L-Gln, Xenopus oocytes; read-out: Ki (inhibition of [3H]-D-Phe-L-Gln uptake). It is filed as cell-based. As to the method: as §1, §2

Assay [3] concerns the target T3, R282H-PepT1 (Oryctolagus cuniculus, UniProt P36836, R282H).
T3 construct: expressed in transfected cells; host or cells: Xenopus laevis oocytes injected with cRNA
T3 sequence (P36836 1-707 R282H): T1 sequence (P36836 1-707 R282Q) with Q282H
Description: Inhibition of [3H]-D-Phe-L-Gln uptake into Xenopus oocytes expressing R282H-PepT1 (competition, Ki). As to conditions: pHout 5.5, 0.4 μM [3H]-D-Phe-L-Gln. It is filed as cell-based, rabbit. Here is the method: as §1, §2

For `NCC(=O)N[C@@H](CCC(N)=O)C(=O)O` [Gly-L-Gln] (H-Gly-Gln-OH), the results for the Ki in assay [1], in assay [2] and in assay [3] were 460 ± 220 µM, 390 ± 220 µM and 300 ± 150 µM, respectively.
